pKi: −log10 of the molar value. Activity calls are given as the source filed them. The calls are words filed in the database; no cut-off is given here.
Experiments:
[1] = test system: Serotonin 3 (5-HT3) receptor; assay: Binding affinity of compound towards 5-hydroxytryptamine 3 receptor; NA: not active; type: protein-complex assay
[2] = target: T1, Serotonin 3 (5-HT3) receptor (Homo sapiens) (UniProt P46098+A5X5Y0+O95264+Q70Z44+Q8WXA8); assay: Intrinsic activity towards CNS 5-hydroxytryptamine 3 receptor was determined; NA: not active; type: protein-complex assay
[3] = target: T1, Serotonin 3 (5-HT3) receptor (Homo sapiens); assay: Intrinsic activity towards 5-hydroxytryptamine 3 receptor was determined by Benzold-Jarisch reflex (peripheral assay); ANT: antagonist; type: functional; details: filed as antagonist
[4] = target: Serotonin 3 (5-HT3) receptor; assay: Binding affinity towards 5-hydroxytryptamine 3 receptor; type: protein-complex assay
[5] = target: T1, Serotonin 3 (5-HT3) receptor (Homo sapiens); assay: Intrinsic activity towards CNS 5-hydroxytryptamine 3 receptor was determined; ANT: Antagonist; type: functional; details: filed as antagonist
[6] = target: T1, Serotonin 3 (5-HT3) receptor (Homo sapiens); assay: Intrinsic activity towards 5-hydroxytryptamine 3 receptor was determined by Benzold-Jarisch reflex (peripheral assay); A: agonist; type: functional; details: filed as agonist
[7] = target: T1, Serotonin 3 (5-HT3) receptor (Homo sapiens); assay: Intrinsic activity towards CNS 5-hydroxytryptamine 3 receptor was determined; A: agonist; type: functional; details: filed as agonist
[8] = target: T1, Serotonin 3 (5-HT3) receptor (Homo sapiens); assay: Intrinsic activity towards 5-hydroxytryptamine 3 receptor was determined by Benzold-Jarisch reflex (peripheral assay); PA: Partial agonist; type: functional; details: filed as partial agonist

Compound	pKi [4]	Intrinsic activity [6]	Intrinsic activity [7]	other results
CN1CCN(c2cc3cc(C(F)(F)F)ccc3n3cccc23)CC1				Ki [1]: Not Active; Intrinsic activity [2]: inactive; Intrinsic activity [3]: Antagonist
Clc1ccc2ccc(N3CCNCC3)nc2c1	7.42			Intrinsic activity [3]: Antagonist
CN1CCN(c2nc3ccccc3c3c2CC2CCC3C2)CC1 (stereo not drawn)	9.08			Intrinsic activity [5]: Antagonist
NCCc1c[nH]c2ccc(O)cc12		Agonist	Agonist	
N=C(N)Nc1cccc(Cl)c1		Agonist		
N=C(N)NC(=N)Nc1ccc2ccccc2c1		Agonist		
c1ccc2nc(N3CCNCC3)ccc2c1			Agonist	Intrinsic activity [8]: Partial agonist
NC1CCN(c2cccc(Cl)n2)CC1	6.99		Agonist	
N=C(N)NC(=N)Nc1ccccc1		Agonist	Agonist	
O=[N+]([O-])c1ccc2nc(N3CCNCC3)ccc2c1 [6-NITROQUIPAZINE]	7.24			Intrinsic activity [3]: Antagonist
CN1CCN(c2nc3ccccc3c3ccccc23)CC1	8.72		Agonist	
CN1CCN(c2nc3ccccc3c3c2CCCC3)CC1	9.64			
CN1CCN(c2cc3cc(F)ccc3n3cccc23)CC1	9.29		Agonist	Intrinsic activity [3]: Antagonist
CN1CCN(c2nc3ccccc3n3cccc23)CC1	9.64		Agonist	Intrinsic activity [3]: Antagonist
N=C(N)Nc1ccc2ccccc2c1		Agonist		
N=C(N)NC(=N)Nc1cccc(Cl)c1		Agonist	Agonist	
Cc1[nH]c2ccc(O)cc2c1CCN		Agonist	Agonist	
